From patent publication US9636409B2, “Enzyme and receptor modulation using covalent conjugates of alpha,alpha-disubstituted glycine esters” (GlaxoSmithKline Intellectual Property Development Limited, priority 2008, dated 2017)

Columns and labels:
[1] = biological target: T1, p38 MAP Kinase α (Homo sapiens, UniProt Q16539); assay: p38 MAP Kinase enzyme assay; format: biochemical; conditions: Table 1 (biology); compound as such, Ester for Example 1; read-out: Inhibition of P38 (IC50 nM)
T1 construct: purchased Upstate (Dundee UK)
Method: p38 MAP Kinase Enzyme Assay
The ability of compounds to inhibit p38 MAPα Kinase activity was measured in an assay performed by Upstate (Dundee UK). In a final reaction volume of 25 μL, p38 MAP Kinase α (5-10 mU) is incubated with 25 mM Tris pH 7.5, 0.02 mM EGTA, 0.33 mg/mL myelin basic protein, 10 mM MgAcetate and [γ-^33P-ATP](specific activity approx. 500 cpm/pmol, concentration as required). The reaction is initiated by the addition of the MgATP mix. After incubation for 40 minutes at room temperature, the reaction is stopped by the addition of 5 μL of a 3% phosphoric acid solution. 10 μL of the reaction is then spotted onto a P30 filtermat and washed three times for 5 minutes in 75 mM phosphoric acid and once in methanol prior to drying and scintillation counting.
Duplicate data points are generated from a 1/3 log dilution series of a stock solution in DMSO. Nine dilutions steps are made from a top concentration of […], and a ‘no compound’ blank is included. The standard radiometric filter-binding assay is performed at an ATP concentration at, or close to, the Km. Data from scintillation counts are collected and subjected to free-fit analysis by Prism software. From the curve generated, the concentration giving 50% inhibition is determined and reported.

[2] = test system: cell lysate from U937 cells; assay: Broken cell carboxylesterase assay (U937 cell extract); format: in vitro ADME; conditions: ester 2.5 μM
Method: Broken Cell Carboxylesterase Assay
Any given compound of the present invention wherein ester conjugate according to the invention may be tested to determine whether it meets the requirement that it be hydrolysed by intracellular esterases, by testing in the following assay.
Preparation of Cell Extract
U937 or HCT 116 tumour cells (˜10^9) were washed in 4 volumes of Dulbeccos PBS (˜1 liter) and pelleted at 525 g for 10 min at 4° C. This was repeated twice and the final cell pellet was re-suspended in 35 mL of cold homogenising buffer (Trizma 10 mM, NaCl 130 mM, CaCl2 0.5 mM pH 7.0 at 25° C.). Homogenates were prepared by nitrogen cavitation (700 psi for 50 min at 4° C.). The homogenate was kept on ice and supplemented with a cocktail of inhibitors at final concentrations of: • Leupeptin 1 μM • Aprotinin 0.1 μM • E64 8 μM • Pepstatin 1.5 μM • Bestatin 162 μM • Chymostatin 33 μM
After clarification of the cell homogenate by centrifugation at 525 g for 10 min, the resulting supernatant was used as a source of esterase activity and was stored at −80° C. until required. […]
Hydrolysis of esters to the corresponding carboxylic acids can be measured using the cell extract, prepared as above. […] After centrifugation at 12000 g for 5 min, samples were analysed for the ester and its corresponding carboxylic acid at room temperature by LCMS (Sciex API 3000, HP1100 binary pump, CTC PAL). […]

T1 sequence (Q16539 whole entry): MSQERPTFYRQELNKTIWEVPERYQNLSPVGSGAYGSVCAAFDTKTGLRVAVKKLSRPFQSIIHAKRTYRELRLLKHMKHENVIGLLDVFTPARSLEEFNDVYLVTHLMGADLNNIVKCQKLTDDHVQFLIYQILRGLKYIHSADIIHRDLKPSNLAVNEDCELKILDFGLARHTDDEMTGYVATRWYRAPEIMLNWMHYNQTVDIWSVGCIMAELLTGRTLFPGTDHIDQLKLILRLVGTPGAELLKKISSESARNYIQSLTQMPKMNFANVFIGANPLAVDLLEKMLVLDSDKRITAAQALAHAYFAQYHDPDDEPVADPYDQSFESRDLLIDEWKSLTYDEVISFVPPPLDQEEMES

IC50 [1]: 50 nM
Cleavage by cell lysate from U937 cells [2]: 165 pg/mL/min
Structure (SMILES): CC(C)(NCCc1ccc(-n2c(N)c(C(=O)c3ccc(F)cc3F)ccc2=O)cc1)C(=O)OC1CCCC1 [Example 1]
